Data from the supplement of paper PMC4862054.

Columns and labels:
Conditions in all cases: incubation time: 72 h
[1] = test system: DU-4475; test: normalised viability (% of control), CellTiter-Blue; higher = more viable cells (100 = DMSO, 0 = benzethonium chloride kill control)
Protocol: (§1)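 DSRT, CellTiter-Blue viability, 72 h incubation. Signal is normalised to DMSO and benzethonium chloride controls. Value is the normalised response at dose 1.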

[2] = test system: MDA-MB-468; test: as above
Protocol: as §1

[3] = test system: BT-549; test: as above
Protocol: as §1

[4] = test system: HDQ-P1; test: as above
Protocol: as §1

[5] = test system: MFM-223; test: as above
Protocol: as §1

[6] = test system: CAL-148; test: as above
Protocol: as §1

[7] = test system: BT-474; test: as above
Protocol: as §1

[8] = test system: MDA-MB-231; test: as above
Protocol: as §1

[9] = test system: HCC1599; test: as above
Protocol: as §1

[10] = test system: CAL-51; test: as above
Protocol: as §1

[11] = test system: HCC1937; test: as above
Protocol: as §1

[12] = test system: SK-BR-3; test: as above
Protocol: as §1

[13] = test system: MDA-MB-453; test: as above
Protocol: as §1

[14] = test system: MDA-MB-436; test: as above
Protocol: as §1

[15] = test system: HCC1143; test: as above
Protocol: as §1

[16] = test system: CAL-120; test: as above
Protocol: as §1

[17] = test system: Hs578T; test: as above
Protocol: as §1

[18] = test system: CAL-85-1; test: as above
Protocol: as §1

[19] = test system: DU-4475; test: normalised response (% of control), CellTiter-Glo; higher = more viable cells (100 = DMSO, 0 = benzethonium chloride kill control)
Summary of the method: (§2)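 Each value is the plate-normalised signal at one concentration of the series. Breast cancer cell lines (20 µl suspension) were incubated 72 h in 384-well plates with compound at 5 concentrations in 10-fold steps over a compound-specific 10,000-fold range. CellTox Green and then CellTiter-Glo were read, and each plate was scaled to 0.1 % DMSO (100) and a positive kill control (0).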

[20] = test system: MDA-MB-468; test: as above
Summary of the method: as §2

[21] = test system: BT-549; test: as above
Summary of the method: as §2

[22] = test system: HDQ-P1; test: as above
Summary of the method: as §2

[23] = test system: MFM-223; test: as above
Summary of the method: as §2

[24] = test system: CAL-148; test: as above
Summary of the method: as §2

[25] = test system: BT-474; test: as above
Summary of the method: as §2

[26] = test system: MDA-MB-231; test: as above
Summary of the method: as §2

[27] = test system: HCC1599; test: as above
Summary of the method: as §2

[28] = test system: CAL-51; test: as above
Summary of the method: as §2

[29] = test system: HCC1937; test: as above
Summary of the method: as §2

[30] = test system: MCF-10A; test: as above
Summary of the method: as §2

[31] = test system: SK-BR-3; test: as above
Summary of the method: as §2

[32] = test system: MDA-MB-453; test: as above
Summary of the method: as §2

[33] = test system: MDA-MB-436; test: as above
Summary of the method: as §2

[34] = test system: HCC1143; test: as above
Summary of the method: as §2

[35] = test system: CAL-120; test: as above
Summary of the method: as §2

[36] = test system: Hs578T; test: as above
Summary of the method: as §2

[37] = test system: CAL-85-1; test: as above
Summary of the method: as §2

Compound	normalised viability [1]	normalised viability [2]	normalised viability [3]	normalised viability [4]	normalised viability [5]	normalised viability [6]	normalised viability [7]	normalised viability [8]	normalised viability [9]	normalised viability [10]	normalised viability [11]	normalised viability [12]	normalised viability [13]	normalised viability [14]	normalised viability [15]	normalised viability [16]	normalised viability [17]	normalised viability [18]	normalised response [19]	normalised response [20]	normalised response [21]	normalised response [22]	normalised response [23]	normalised response [24]	normalised response [25]	normalised response [26]	normalised response [27]	normalised response [28]	normalised response [29]	normalised response [30]	normalised response [31]	normalised response [32]	normalised response [33]	normalised response [34]	normalised response [35]	normalised response [36]	normalised response [37]
Cc1ccc(C(=O)Nc2ccc(CN3CCN(C)CC3)c(C(F)(F)F)c2)cc1C#Cc1cnc2cccnn12 [Ponatinib] (0.1 nM)	97.2%	104%	98.3%	109%	103%	98.5%	90.1%	107%	104%	87.5%	87.3%	91.9%	92.5%	103%	103%	97.1%	111%	101%	101%	105%	109%	104%	98%	105%	102%	99.3%	99.4%	95.4%	95.3%	102%	101%	101%	105%	95.9%	103%	102%	103%
C=C(c1ccc(C(=O)O)cc1)c1cc2c(cc1C)C(C)(C)CCC2(C)C [Bexarotene] (1 nM)	82.5%	105%	88.7%	84.7%	99.6%	105%	81.1%	86.1%	101%	94.1%	108%	94.8%	83.5%	82.5%	110%	115%	111%	102%	99.6%	109%	103%	102%	97.5%	107%	103%	107%	98.9%	105%	100%	99.8%	102%	111%	89.5%	99.7%	99.6%	93.2%	99.7%
CN[C@@H]1C[C@H]2O[C@@](C)([C@@H]1OC)n1c3ccccc3c3c4c(c5c6ccccc6n2c5c31)C(=O)N[C@H]4O [UCN-01] (1 nM)	128%	99.8%	92%	69.6%	108%	102%	99.2%	92%	118%	98.9%	82.1%	104%	99.3%	111%	95.7%	82.9%	106%	87.8%	109%	103%	95.5%	99%	102%	105%	97.5%	103%	100%	78.4%	90.9%	102%	109%	99.8%	100%	98.7%	91.5%	98%	102%
Cn1c(CCCC(=O)O)nc2cc(N(CCCl)CCCl)ccc21 [Bendamustine] (1 nM)	111%	110%	106%	65.9%	94.8%	108%	108%	116%	107%	102%	103%	93.2%	109%	109%	112%	90.5%	104%	90.2%	108%	108%	101%	102%	106%	116%	107%	106%	99.5%	75.8%	103%	103%	117%	127%	97.5%	104%	99.5%	99.8%	105%
CCC1=C[C@@H]2CN(C1)Cc1c([nH]c3ccccc13)[C@@](C(=O)OC)(c1cc3c(cc1OC)N(C)[C@H]1[C@@](O)(C(=O)OC)[C@H](OC(C)=O)[C@]4(CC)C=CCN5CC[C@]31[C@@H]54)C2 [Vinorelbine] (1 nM)	102%	99.3%	109%	109%	95.6%	106%	104%	93.3%	90.2%	98.1%	90.8%	95.2%	86.9%	101%	96.5%	94.2%	113%	98.1%	98.9%	101%	106%	98.1%	96.5%	108%	97.4%	107%	107%	102%	95%	108%	95.2%	102%	96.6%	101%	106%	97.2%	101%
O=C1CCC(N2C(=O)c3ccccc3C2=O)C(=O)N1 (stereo unspecified) [Thalidomide] (1 nM)	101%	105%	95.2%	110%	96.1%	122%	76.9%	88.7%	104%	86.2%	90%	102%	108%	97%	100%	115%	106%	109%	95.1%	98.5%	104%	101%	98%	96.4%	99.2%	104%	111%	93.9%	97.7%	104%	96.8%	96.6%	101%	95.5%	99.3%	98.2%	100%
Clc1ccc(Nc2nnc(Cc3ccncc3)c3ccccc23)cc1 [Vatalanib] (1 nM)	97.9%	98.8%	100%	91%	106%	90.5%	86.8%	87.7%	95.2%	99.4%	78.3%	93.2%	99.8%	125%	89.5%	84.3%	99.8%	94.3%	104%	114%	93.2%	103%	108%	102%	101%	99.1%	105%	99.8%	101%	110%	111%	103%	98.9%	97.1%	97.3%	101%	102%
Cn1c(Nc2ccc(C(F)(F)F)cc2)nc2cc(Oc3ccnc(-c4ncc(C(F)(F)F)[nH]4)c3)ccc21 [RAF265] (0.1 nM)	105%	104%	117%	80.2%	96%	95.6%	102%	117%	119%	94.2%	99%	89.5%	103%	104%	104%	86.2%	111%	87.7%	107%	102%	104%	103%	108%	110%	107%	103%	112%	73.6%	102%	107%	110%	118%	104%	106%	99%	106%	102%
